Consider 2 compounds from ChEMBL document CHEMBL3232964, “Quinone-carbohydrate nonglucoside conjugates as a new type of cytotoxic agents: synthesis and determination of in vitro activity” (Eur J Med Chem, 2014).

The source made the active and inactive calls. The calls are words filed in the database; no cut-off is given here. A value given as a limit tells only on which side of the number the result lay.

In series [1] the test system is HeLa. Briefly: Induction of p53-independent apoptosis in human HeLa cells assessed as dead cells at 10 uM after 24 hrs by Annexin-V-FITC/propidium iodide double staining based flow cytometry (reference value: 3.89 +/- 0.3%). The class given is functional. (In general: Flow cytometry measures light scatter and fluorescence of single cells or particles in a stream.)

Series [2] in a line: Induction of apoptosis in tumor promotion-sensitive mouse JB6 Cl41 cells assessed as late apoptotic/necrotic cells at 20 uM after 24 hrs by Annexin-V-FITC/propidium iodide staining based flow cytometry (reference value: 0.53 +/- 0.47%). Format: cell-based. As to conditions: jb6 cl41, 24 h.
The nature of series [3]: Induction of apoptosis in tumor promotion-sensitive mouse JB6 Cl41 cells assessed as viable cells at 2.5 uM after 24 hrs by Annexin-V-FITC/propidium iodide staining based flow cytometry (reference value: 94.33 +/- 0.87%). As to conditions: read-out: Activity. The class given is cell-based.
A short description of series [4]: Induction of apoptosis in tumor promotion-sensitive mouse JB6 Cl41 cells assessed as viable cells at 5 uM after 24 hrs by Annexin-V-FITC/propidium iodide staining based flow cytometry (reference value: 94.33 +/- 0.87%). Format: cell-based. As to conditions: read-out: Activity.
A short description of series [5]: Induction of apoptosis in tumor promotion-sensitive mouse JB6 Cl41 cells assessed as viable cells at 10 uM after 24 hrs by Annexin-V-FITC/propidium iodide staining based flow cytometry (reference value: 94.33 +/- 0.87%). Format: cell-based. As to conditions: read-out: Activity.
A short description of series [6]: Induction of apoptosis in tumor promotion-sensitive mouse JB6 Cl41 cells assessed as early apoptotic cells at 10 uM after 24 hrs by Annexin-V-FITC/propidium iodide staining based flow cytometry (reference value: 2.15 +/- 1.18%). The class given is cell-based. As to conditions: jb6 cl41, 24 h.
Series [7] deals with HeLa. Nature of the series: Induction of p53-independent apoptosis in human HeLa cells assessed as late apoptotic/necrotic cells at 20 uM after 24 hrs by Annexin-V-FITC/propidium iodide double staining based flow cytometry (reference value: 0.88 +/- 0.72%). The class given is functional.
For series [8], the system named is HeLa. Briefly: Induction of p53-independent apoptosis in human HeLa cells assessed as late apoptotic/necrotic cells at 10 uM after 24 hrs by Annexin-V-FITC/propidium iodide double staining based flow cytometry (reference value: 0.88 +/- 0.72%). The class given is functional.
The test system of series [9] is HeLa. Nature of the series: Induction of p53-independent apoptosis in human HeLa cells assessed as late apoptotic/necrotic cells at 2.5 uM after 24 hrs by Annexin-V-FITC/propidium iodide double staining based flow cytometry (reference value: 0.88 +/- 0.72%). Format: functional.
A short description of series [10]: Cytotoxicity against tumor promotion-sensitive mouse JB6 Cl41 cells assessed as cell viability after 48 hrs by MTS assay. As to conditions: JB6 Cl41, 48 h. Format: cell-based. (In general: Formazan colour is commonly taken as a measure of viable cells.)
Series [11] has as its system HeLa. Briefly: Cytotoxicity against human HeLa cells assessed as cell viability after 24 hrs by MTS assay. The class given is functional, cell-based.
Series [12] deals with HeLa. Briefly: Induction of p53-independent apoptosis in human HeLa cells assessed as late apoptotic/necrotic cells at 5 uM after 24 hrs by Annexin-V-FITC/propidium iodide double staining based flow cytometry (reference value: 0.88 +/- 0.72%). The class given is functional.
A short description of series [13]: Induction of apoptosis in tumor promotion-sensitive mouse JB6 Cl41 cells assessed as early apoptotic cells at 20 uM after 24 hrs by Annexin-V-FITC/propidium iodide staining based flow cytometry (reference value: 2.15 +/- 1.18%). The class given is cell-based. As to conditions: jb6 cl41, 24 h.
For series [14], the system named is HeLa. Nature of the series: Induction of p53-independent apoptosis in human HeLa cells assessed as viable cells at 20 uM after 24 hrs by Annexin-V-FITC/propidium iodide double staining based flow cytometry (reference value: 88.52 +/- 11%). Format: functional. As to conditions: read-out: Activity.
A short description of series [15]: Induction of apoptosis in tumor promotion-sensitive mouse JB6 Cl41 cells assessed as early apoptotic cells at 5 uM after 24 hrs by Annexin-V-FITC/propidium iodide staining based flow cytometry (reference value: 2.15 +/- 1.18%). Format: cell-based. As to conditions: jb6 cl41, 24 h.
A short description of series [16]: Induction of apoptosis in tumor promotion-sensitive mouse JB6 Cl41 cells assessed as viable cells at 20 uM after 24 hrs by Annexin-V-FITC/propidium iodide staining based flow cytometry (reference value: 94.33 +/- 0.87%). The class given is cell-based. As to conditions: read-out: Activity.
Series [17] concerns HeLa. Nature of the series: Ratio of IC50 to INCC50 for human HeLa cells. The class given is functional.
For series [18], the system named is HeLa. Nature of the series: Induction of p53-independent apoptosis in human HeLa cells assessed as viable cells at 10 uM after 24 hrs by Annexin-V-FITC/propidium iodide double staining based flow cytometry (reference value: 88.52 +/- 11%). Format: functional. As to conditions: read-out: Activity.
Series [19] in a line: Induction of apoptosis in tumor promotion-sensitive mouse JB6 Cl41 cells assessed as dead cells at 20 uM after 24 hrs by Annexin-V-FITC/propidium iodide staining based flow cytometry (reference value: 2.99 +/- 0.82%). As to conditions: jb6 cl41, 24 h. Format: cell-based.
In series [20] the test system is HeLa. Nature of the series: Induction of p53-independent apoptosis in human HeLa cells assessed as early apoptotic cells at 2.5 uM after 24 hrs by Annexin-V-FITC/propidium iodide double staining based flow cytometry (reference value: 6.71 +/- 4.41%). The class given is functional.
For series [21], the system named is HeLa. Nature of the series: Induction of p53-independent apoptosis in human HeLa cells assessed as dead cells at 2.5 uM after 24 hrs by Annexin-V-FITC/propidium iodide double staining based flow cytometry (reference value: 3.89 +/- 0.3%). Format: functional.
Series [22] is described as follows: Induction of apoptosis in tumor promotion-sensitive mouse JB6 Cl41 cells assessed as dead cells at 2.5 uM after 24 hrs by Annexin-V-FITC/propidium iodide staining based flow cytometry (reference value: 2.99 +/- 0.82%). The class given is cell-based. As to conditions: jb6 cl41, 24 h.
Series [23] has as its system HeLa. Nature of the series: Induction of p53-independent apoptosis in human HeLa cells assessed as early apoptotic cells at 20 uM after 24 hrs by Annexin-V-FITC/propidium iodide double staining based flow cytometry (reference value: 6.71 +/- 4.41%). Format: functional.
Series [24] deals with HeLa. Briefly: Induction of p53-independent apoptosis in human HeLa cells assessed as viable cells at 2.5 uM after 24 hrs by Annexin-V-FITC/propidium iodide double staining based flow cytometry (reference value: 88.52 +/- 11%). The class given is functional. As to conditions: read-out: Activity.
Series [25] can be described thus: Induction of apoptosis in tumor promotion-sensitive mouse JB6 Cl41 cells assessed as dead cells at 5 uM after 24 hrs by Annexin-V-FITC/propidium iodide staining based flow cytometry (reference value: 2.99 +/- 0.82%). Format: cell-based. As to conditions: jb6 cl41, 24 h.
Series [26] is described as follows: Induction of apoptosis in tumor promotion-sensitive mouse JB6 Cl41 cells assessed as early apoptotic cells at 2.5 uM after 24 hrs by Annexin-V-FITC/propidium iodide staining based flow cytometry (reference value: 2.15 +/- 1.18%). The class given is cell-based. As to conditions: jb6 cl41, 24 h.
Series [27] deals with HeLa. Briefly: Induction of p53-independent apoptosis in human HeLa cells assessed as viable cells at 5 uM after 24 hrs by Annexin-V-FITC/propidium iodide double staining based flow cytometry (reference value: 88.52 +/- 11%). As to conditions: read-out: Activity. Format: functional.
The subject of series [28] is HeLa. Briefly: Induction of p53-independent apoptosis in human HeLa cells assessed as early apoptotic cells at 5 uM after 24 hrs by Annexin-V-FITC/propidium iodide double staining based flow cytometry (reference value: 6.71 +/- 4.41%). The class given is functional.
A short description of series [29]: Induction of apoptosis in tumor promotion-sensitive mouse JB6 Cl41 cells assessed as late apoptotic/necrotic cells at 2.5 uM after 24 hrs by Annexin-V-FITC/propidium iodide staining based flow cytometry (reference value: 0.53 +/- 0.47%). The class given is cell-based. As to conditions: jb6 cl41, 24 h.
The test system of series [30] is HeLa. Nature of the series: Induction of p53-independent apoptosis in human HeLa cells assessed as dead cells at 5 uM after 24 hrs by Annexin-V-FITC/propidium iodide double staining based flow cytometry (reference value: 3.89 +/- 0.3%). Format: functional.
Series [31] in a line: Induction of apoptosis in tumor promotion-sensitive mouse JB6 Cl41 cells assessed as late apoptotic/necrotic cells at 5 uM after 24 hrs by Annexin-V-FITC/propidium iodide staining based flow cytometry (reference value: 0.53 +/- 0.47%). As to conditions: jb6 cl41, 24 h. The class given is cell-based.
The test system of series [32] is HeLa. Briefly: Cytotoxicity against human HeLa cells assessed as cell viability after 48 hrs by MTS assay. Format: functional, cell-based.
Series [33] can be described thus: Induction of apoptosis in tumor promotion-sensitive mouse JB6 Cl41 cells assessed as late apoptotic/necrotic cells at 10 uM after 24 hrs by Annexin-V-FITC/propidium iodide staining based flow cytometry (reference value: 0.53 +/- 0.47%). Format: cell-based. As to conditions: jb6 cl41, 24 h.
For series [34], the target named is Cellular tumor antigen p53 (Mus musculus) (UniProt P02340). Briefly: Inhibition of p53-dependent transcriptional activity in tumor promotion-sensitive mouse JB6 Cl41 cells after 12 hrs by luciferase-based method. The class given is cell-based.
The test system of series [35] is HeLa. Nature of the series: Induction of p53-independent apoptosis in human HeLa cells assessed as dead cells at 20 uM after 24 hrs by Annexin-V-FITC/propidium iodide double staining based flow cytometry (reference value: 3.89 +/- 0.3%). Format: functional.
In series [36] the test system is HeLa. Briefly: Induction of p53-independent apoptosis in human HeLa cells assessed as early apoptotic cells at 10 uM after 24 hrs by Annexin-V-FITC/propidium iodide double staining based flow cytometry (reference value: 6.71 +/- 4.41%). Format: functional.
Series [37] is described as follows: Induction of apoptosis in tumor promotion-sensitive mouse JB6 Cl41 cells assessed as dead cells at 10 uM after 24 hrs by Annexin-V-FITC/propidium iodide staining based flow cytometry (reference value: 2.99 +/- 0.82%). The class given is cell-based. As to conditions: jb6 cl41, 24 h.
Series [38] has as its system HeLa. Briefly: Cytotoxicity against human HeLa cells assessed as inhibition of number of colonies formed in soft agar after 14 days by microscopic analysis. Format: functional.
Series [39] is described as follows: Cytotoxicity against tumor promotion-sensitive mouse JB6 Cl41 cells expressing luciferase reporter gene assessed as cell viability after 12 hrs by MTS assay. Format: cell-based. As to conditions: jb6 cl41, 12 h. (In a reporter assay the amount or activity of a reporter protein is the signal.)

Sequence of Cellular tumor antigen p53 (Mus musculus) (P02340 whole entry): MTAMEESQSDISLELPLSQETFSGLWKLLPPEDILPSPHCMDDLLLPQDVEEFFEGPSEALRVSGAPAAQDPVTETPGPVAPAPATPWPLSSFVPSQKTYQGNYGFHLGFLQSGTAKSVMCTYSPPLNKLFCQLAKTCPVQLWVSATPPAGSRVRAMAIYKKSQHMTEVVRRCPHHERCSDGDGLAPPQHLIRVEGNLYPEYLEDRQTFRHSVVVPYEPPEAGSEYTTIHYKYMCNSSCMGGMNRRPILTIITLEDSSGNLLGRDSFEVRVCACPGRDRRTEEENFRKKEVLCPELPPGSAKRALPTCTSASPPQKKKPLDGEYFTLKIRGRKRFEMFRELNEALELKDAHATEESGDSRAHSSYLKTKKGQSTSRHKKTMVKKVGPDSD

Usually IC50 stands for the midpoint of a concentration-inhibition curve. Take `CO[C@H]1O[C@H](COC2=CC(=O)c3c(O)ccc(O)c3C2=O)[C@@H](O)[C@H](O)[C@H]1O`: the Activity turned out to be 2.77% in series [1]; 13.91% in series [2]; 7.41% in [6]; 24.44% in series [7]; 1.74% in series [8]; 1.55% in series [9]. The Activity was determined as 1.35% in [12]; 40.96% in [13]; 1.8% in [15]; 31.75% in series [19]; 8.28% in series [20]; 2.8% in [21]. For the same compound, the Activity in series [22] is 2.99%; in series [23] it was 14.06%; in series [25], 0.4%; in [26] it was 1.84%; in [28] it was 6.44%; in [29], 2.46%. Also, the Activity in [30] is on record as 2.67%; in [31], 2.96%; in series [33] it was 1.91%; in [35], 31.42%; in [36], 7.99%; in [37], 3.17%. Further, the viability at 24 h, 2.5 µM in [3] is 91.7%. Besides, the viability at 24 h, 5 µM in series [4] came out at 88.8%. In series [5], the viability at 24 h, 10 µM came to 87.5%. The IC50 amounted to 8.47 µM in [10], 7.54 µM in series [11] and 7.89 µM in [32]. Also, in series [14], the viability at 20 µM amounted to 30.1%. Besides, the viability at 24 h, 20 µM in series [16] came out at 13.4%. In addition, in [17], the Ratio is on record as 1.96. In addition, the viability at 10 µM in [18] was 87.5%. Also, the viability at 2.5 µM in [24] worked out at 87.4%. The viability at 5 µM in [27] is 89.5%. For the same compound, the inhibition result in [34] was “Active”. Also, the INCC50 in series [38] is 4.03 µM.

Regarding `CO[C@H]1O[C@H](CO)[C@@H](O)[C@H](O)[C@H]1O`, the IC50 in [10], in series [11] and in [32] was > 200 µM throughout. Moreover, in series [34], the inhibition result was “inactive”. Further, the Activity entry in [39] is “Non-toxic”. The INCC50 in [38] was >200 µM.
